Results reported in paper PMC11052071, “Novel JAK Inhibitors to Reduce Graft-Versus-Host Disease after Allogeneic Hematopoietic Cell Transplantation in a Preclinical Mouse Model” (Molecules, 2024).

Tested on: T-bet
Assay: T-bet expression in activated primary murine T cells (flow cytometry)
Format: cell-based, B6 mice
Details: anti-CD3/CD28 activation beads, 3 days, dose-dependent
Excerpt: WU6 is a derivative of WU4, incorporating a trifluoromethane sulfonamide for WU6 instead of an ethyl sulfonamide for WU4. […]. […] Subsequently, we examined the effect of WU6 on the expression of CXCR3 and T-bet (the master transcription factor of Th1 and cytotoxic T cell differentiation) in primary murine T cells.
Figure 8 Effect of WU6 on the expression of CXCR3 and T-bet in vitro and GvHD in mouse model of allo-HCT. (A–D) Primary T cells were isolated from B6 and treated with WU6 at indicated doses for 3 days in the presence of anti-CD3/CD28 activation beads. After 3 days, the expression of CXCR3 (A,B) and T-bet (C,D) in the CD4 and CD8 was determined by flow cytometry. Survival rate and (E) clinical GvHD scores (F) of mice treated with WU6 after allo-HCT. (G,H) % BM-derived B cells (B220+) and T cells (CD3+) were examined in the peripheral blood on day 27 after allo-HCT. * p < 0.05, ** p < 0.01, and *** p < 0.001. All error bars are represented as mean ± standard deviation.
T cells from in vitro primary murine T cell culture, fresh peripheral blood, or whole splenocytes were analyzed according to cell surface and intracellular markers. […] All cells were run on a ZE5 Cell Analyzer (BD Biosciences, Mountain View, CA, USA) or Attune® NxT (Thermofisher Scientific, Waltham, MA, USA) and analyzed with the FlowJo software, version 10.9.0 (FlowJo LLC., Ashland, OR, USA). […]

`N#CCC1(n2cc(-c3ncnc4[nH]ccc34)cn2)CC2(CC(NS(=O)(=O)C(F)(F)F)C2)C1` (stereo not shown) [WU6] was tested, and the “T-bet expression in CD4 and CD8 T cells” value was “significantly downregulated”.
